Measurements published in EP2650284A1, “Heterocyclic derivatives as metabotropic glutamate receptor modulators” (Merz Pharma GmbH & Co. KGaA, priority 2012, dated 2013).

The compounds below were run against T1, mGluR5 binding site (Rattus norvegicus, UniProt P31424) (assay: [3H]-M-MPEP displacement studies on rat cortical membranes). Conditions: Table A3, [3H]-M-MPEP 2 nM, 4°C for 1 h, median, read-out: Ki (MMPEP).
T1 construct: from tissue; host or cells: cortex of adult male Sprague-Dawley rats, membrane preparation
T1 sequence (P31424 21-1203): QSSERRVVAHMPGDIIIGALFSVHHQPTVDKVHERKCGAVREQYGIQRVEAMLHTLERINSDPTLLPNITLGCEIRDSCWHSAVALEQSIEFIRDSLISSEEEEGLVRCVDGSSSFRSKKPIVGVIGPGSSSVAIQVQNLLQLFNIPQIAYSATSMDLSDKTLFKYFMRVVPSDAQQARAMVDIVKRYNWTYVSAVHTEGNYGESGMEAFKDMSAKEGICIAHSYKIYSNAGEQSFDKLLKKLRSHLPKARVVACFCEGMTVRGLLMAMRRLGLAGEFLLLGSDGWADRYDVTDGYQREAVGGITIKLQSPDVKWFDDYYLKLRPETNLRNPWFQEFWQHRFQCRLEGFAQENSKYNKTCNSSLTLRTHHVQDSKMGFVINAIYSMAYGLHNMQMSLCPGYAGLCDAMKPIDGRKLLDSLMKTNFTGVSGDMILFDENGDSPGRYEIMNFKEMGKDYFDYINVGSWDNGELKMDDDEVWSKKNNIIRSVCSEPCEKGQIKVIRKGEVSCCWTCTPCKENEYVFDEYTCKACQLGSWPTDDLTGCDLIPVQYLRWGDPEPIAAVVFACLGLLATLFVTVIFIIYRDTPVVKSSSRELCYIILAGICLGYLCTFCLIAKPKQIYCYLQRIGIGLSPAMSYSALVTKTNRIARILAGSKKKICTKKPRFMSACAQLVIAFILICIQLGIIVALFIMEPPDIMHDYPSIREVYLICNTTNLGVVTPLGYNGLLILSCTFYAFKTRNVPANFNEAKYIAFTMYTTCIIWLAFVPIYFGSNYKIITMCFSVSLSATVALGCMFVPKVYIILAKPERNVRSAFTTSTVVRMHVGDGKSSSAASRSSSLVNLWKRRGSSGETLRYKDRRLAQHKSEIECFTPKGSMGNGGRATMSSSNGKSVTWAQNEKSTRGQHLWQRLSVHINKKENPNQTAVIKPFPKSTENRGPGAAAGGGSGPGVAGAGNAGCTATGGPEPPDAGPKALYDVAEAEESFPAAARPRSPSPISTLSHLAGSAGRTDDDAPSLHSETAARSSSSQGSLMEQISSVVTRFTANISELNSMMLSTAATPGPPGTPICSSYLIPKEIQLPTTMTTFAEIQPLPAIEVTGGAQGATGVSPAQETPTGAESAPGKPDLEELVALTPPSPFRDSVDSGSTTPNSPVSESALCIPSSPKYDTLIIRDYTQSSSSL
Description: Tissue preparation is performed according to Foster & Wong (Br. J. Pharmacol., 1987, 91, 403-409) with some modifications. Anaesthetised male Sprague-Dawley rats (200-250 g, Janvier, Le Genest-Isle, France) are decapitated and their brains are removed rapidly. The cortex is dissected out and processed as described by Parsons, et al. (J. Pharmacol. Exp. Ther., 1997, 283(3): 1264-1275). For isolation of the cell membranes, the cortices are homogenized in 20 volumes of ice-cold 0.32 M sucrose (Sigma-Aldrich, Taufkirchen, Germany) using a glass-Teflon homogenizer. The homogenate is centrifuged at 1000 x g for 10 minutes, the pellet is discarded and the supernatant centrifuged at 20,000 x g for 20 minutes. The resulting pellet is resuspended in 20 volumes of distilled water and centrifuged for 20 minutes at 8000 x g. The supernatant and the buffy coat are then centrifuged six times (48,000 x g for 20 minutes) in the presence of 5 mM Tris-HCl, pH 7.5. All centrifugation steps are carried out at 4°C. After resuspension in 5 volumes of 5 mM Tris-HCl, pH 7.5, the membrane suspension is frozen rapidly at -80°C.
On the day of assay, the membrane suspensions are thawed, centrifuged (48,000 x g for 20 minutes) and then resuspended in 50 mM Tris-HCl, pH 7.5 (assay buffer). The amount of protein in the final membrane preparation is determined according to the method of Lowry, et al. (J. Biol. Chem., 1951, 193, 256-275). The final concentration used for our studies is 400 µg / ml.
The Tecan robotic system designed for binding assays is loaded with the membrane solution, a 96 well stock plate containing the solutions for bound control (buffer/DMSO 10%), unlabeled MPEP (10 µM) for evaluation of non-specific binding, all compounds to be tested (at 20-fold concentrations), various empty 96-well plates for dilutions and the final assay plates, as well as a 96-well plate filled with the radioligand.
Before performing displacement studies, saturation experiments are performed to determine the equilibrium dissociation constant (Kd, Cheng and Prussoff, Biochem. Pharmacol., 1973, 22: 3099-3108) of [^3H]-M-MPEP, which is a parameter for the affinity of the radioligand to the binding site. On the basis of the saturation experiments, a final [^3H]-M-MPEP concentration of 2 nM was selected.
Firstly, the assay plates are loaded with membrane solution and are shaken at 4°C. The mother plates were then prepared by pipetting the compounds (n = 5) into assay buffer/10% DMSO to obtain the desired final concentrations. After transferring radioligand into the assay plates, the compounds are added (including the non-specific binding control containing MPEP). The final DMSO concentration is always 1 %. The assay plates are incubated and shaken at 4°C for 1 h, before the mixture is exhausted as rapidly as possible via a vacuum manifold using the Multiscreen HTS glass fibre (type B) high flow filter plates (Millipore, Schwalbach, Germany) under a constant vacuum of 450 mbar. The membranes are washed four times with cold assay buffer (100 µL). 50 µL of Ultima Gold scintillation cocktail (PerkinElmer) is added to the wet filter plates and incubated at rt overnight before counting the disintegration per minutes using a liquid scintillation counter (MicroBeta, PerkinElmer).
For the evaluation of the test compound binding affinity to the mGluR5 binding site and its potency to displace [^3H]-M-MPEP, the measured radioactivity of the radioligand alone was set as 100% bound control and the non-specific binding of the radioligand represented the 0% control. The residual radioactivity after displacement of the test compound was then corrected with respect to the set controls. Data are given as median IC50 and Ki, respectively.

SMILES | Ki [nM]
CCCN1CCO[C@@H]2c3cc(C#Cc4ccccc4)cnc3CC[C@@H]21 (single isomer, unassigned) [Example 17, cis-9-(Phenylethynyl)-4-propyl-3,4,4a,5,6,10b-hexahydro-2H-[1,4]oxazino[2,3-f]quinoline] | 3620
CCCN1CCO[C@@H]2c3cc(C#Cc4cccc(C)c4)cnc3CC[C@@H]21 (racemic) [Example 21, (rac)-cis-4-Propyl-9-(m-tolylethynyl)-3,4,4a,5,6,10b-hexahydro-2H-[1,4]oxazino[2,3-f]quinoline] | 1720
CCCN1CC2(CCCc3ncc(C#Cc4cccc(F)c4)cc32)OC1=O (racemic) [Example 66, (rac)-3'-((3-Fluorophenyl)ethynyl)-3-propyl-7',8'-dihydro-6'H-spiro[oxazolidine-5,5'-quinolin]-2-one] | 857
CCCN1CC2(CCCc3ncc(C#Cc4cccc(C)c4)cc32)OC1=O (racemic) [Example 64, (rac)-3-Propyl-3'-(m-tolylethynyl)-7',8'-dihydro-6'H-spiro[oxazolidine-5,5'-quinolin]-2-one] | 399

More lines, now with the values ahead:

Ki [nM] | SMILES
204 | COC1CCCc2ncc(C#Cc3ccccc3)cc21 (single isomer, unassigned) [Example 2, 5-Methoxy-3-(phenylethynyl)-5,6,7,8-tetrahydroquinoline]
56.5 | CCOC(=O)N1CCc2ncc(C#Cc3ccccc3)cc2C1 [Example 40, Ethyl 3-(phenylethynyl)-7,8-dihydro-1,6-naphthyridine-6(5H)-carboxylate]
289 | COC(=O)N1CC[C@H]2CCc3ncc(C#Cc4ccccc4)cc3[C@H]21 (racemic) [Example 29, (rac)-cis-Methyl 8-(phenylethynyl)-2,3,3a,4,5,9b-hexahydro-1H-pyrrolo[2,3-f]quinoline-1-carboxylate]
395 | CC(C)C(=O)N1CCc2ncc(C#Cc3ccccc3)cc2C1 [Example 33, 2-Methyl-1-(3-(phenylethynyl)-7,8-dihydro-1,6-naphthyridin-6(5H)-yl)propan-1-one]
